In PubChem BioAssay (NCI):
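Abbreviation: GI50, concentration required for 50% inhibition of growth. At the TGI there is no net growth.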

Legend:
Test in all cases: growth of human tumour cells (NCI), 384-well format
NCI/ADR-RES ovarian = tested on: NCI/ADR-RES ovarian
NCI-H522 lung = tested on: NCI-H522 lung
T-47D breast = tested on: T-47D breast
SF-268 CNS = tested on: SF-268 CNS
HS 578T breast = tested on: HS 578T breast
MALME-3M melanoma = tested on: MALME-3M melanoma
HT29 colon = tested on: HT29 colon
NCI-H226 lung = tested on: NCI-H226 lung
OVCAR-4 ovarian = tested on: OVCAR-4 ovarian
SN12C renal = tested on: SN12C renal
A549 NSCLC = tested on: A549 NSCLC
COLO 205 colon = tested on: COLO 205 colon
K-562 leukemia = tested on: K-562 leukemia
SNB-75 CNS = tested on: SNB-75 CNS
SR leukemia = tested on: SR leukemia
HCT-15 colon = tested on: HCT-15 colon
MOLT-4 leukemia = tested on: MOLT-4 leukemia
UO-31 renal = tested on: UO-31 renal
HOP-92 NSCLC = tested on: HOP-92 NSCLC
SW-620 colon = tested on: SW-620 colon
UACC-257 melanoma = tested on: UACC-257 melanoma
HOP-62 NSCLC = tested on: HOP-62 NSCLC
SK-MEL-28 melanoma = tested on: SK-MEL-28 melanoma
SK-MEL-5 melanoma = tested on: SK-MEL-5 melanoma
A498 renal = tested on: A498 renal
SNB-19 CNS = tested on: SNB-19 CNS
NCI-H23 lung = tested on: NCI-H23 lung
786-0 renal = tested on: 786-0 renal
U251 glioblastoma = tested on: U251 glioblastoma
HCT-116 colon = tested on: HCT-116 colon
MDA-MB-231 breast = tested on: MDA-MB-231 breast
UACC-62 melanoma = tested on: UACC-62 melanoma
SK-MEL-2 melanoma = tested on: SK-MEL-2 melanoma
ACHN renal = tested on: ACHN renal
SK-OV-3 ovarian = tested on: SK-OV-3 ovarian
HL-60(TB) leukemia = tested on: HL-60(TB) leukemia
BT-549 breast = tested on: BT-549 breast
SF-539 CNS = tested on: SF-539 CNS
NCI-H322M lung = tested on: NCI-H322M lung
M14 melanoma = tested on: M14 melanoma
DU-145 prostate = tested on: DU-145 prostate
RXF 393 renal = tested on: RXF 393 renal
KM12 colon = tested on: KM12 colon
HCC-2998 colon = tested on: HCC-2998 colon
MDA-MB-435 melanoma = tested on: MDA-MB-435 melanoma
NCI-H460 NSCLC = tested on: NCI-H460 NSCLC
PC-3 prostate = tested on: PC-3 prostate
EKVX NSCLC = tested on: EKVX NSCLC
CCRF-CEM leukemia = tested on: CCRF-CEM leukemia
SF-295 CNS = tested on: SF-295 CNS
OVCAR-5 ovarian = tested on: OVCAR-5 ovarian
LOX IMVI melanoma = tested on: LOX IMVI melanoma
CAKI-1 renal = tested on: CAKI-1 renal
OVCAR-3 ovarian = tested on: OVCAR-3 ovarian
RPMI-8226 leukemia = tested on: RPMI-8226 leukemia

For `C[C@@H](NC(=O)/C(C#N)=C/c1ccc([N+](=O)[O-])cc1)c1ccccc1`, the GI50 (NCI/ADR-RES ovarian) was 2.08 µM, the TGI (NCI/ADR-RES ovarian) was 4.65 µM and the GI50 (NCI-H522 lung) was 0.271 µM. The TGI (NCI-H522 lung) was 0.964 µM, the GI50 (T-47D breast) was 2.75 µM and the TGI (T-47D breast) was 5.85 µM. It also gave a GI50 (SF-268 CNS) of 2.23 µM, a TGI (SF-268 CNS) of 5.52 µM and a GI50 (HS 578T breast) of 1.85 µM. The TGI (HS 578T breast) was 3.41 µM, the GI50 (MALME-3M melanoma) was 2.29 µM and the TGI (MALME-3M melanoma) was 4.6 µM. It also gave a GI50 (HT29 colon) of 1.82 µM, a TGI (HT29 colon) of 3.25 µM and a GI50 (NCI-H226 lung) of 2.04 µM. For the same compound, the TGI (NCI-H226 lung) was 4.28 µM, the GI50 (OVCAR-4 ovarian) was 1.73 µM and the TGI (OVCAR-4 ovarian) was 3.3 µM. For the same compound, the GI50 (SN12C renal) was 2.01 µM, the TGI (SN12C renal) was 4.19 µM and the GI50 (A549 NSCLC) was 3.04 µM. For the same compound, the TGI (A549 NSCLC) was 8.55 µM, the GI50 (COLO 205 colon) was 1.71 µM and the TGI (COLO 205 colon) was 3.11 µM. For the same compound, the GI50 (K-562 leukemia) was 1.85 µM, the TGI (K-562 leukemia) was 4.04 µM and the GI50 (SNB-75 CNS) was 1.76 µM. For the same compound, the TGI (SNB-75 CNS) was 3.24 µM, the GI50 (SR leukemia) was 1.28 µM and the TGI (SR leukemia) was 2.58 µM. For the same compound, the GI50 (HCT-15 colon) was 1.72 µM, the TGI (HCT-15 colon) was 3.24 µM and the GI50 (MOLT-4 leukemia) was 1.5 µM. It also gave a TGI (MOLT-4 leukemia) of 2.85 µM, a GI50 (UO-31 renal) of 1.34 µM and a TGI (UO-31 renal) of 2.66 µM. For the same compound, the GI50 (HOP-92 NSCLC) was 3.22 µM, the TGI (HOP-92 NSCLC) was 12.1 µM and the GI50 (SW-620 colon) was 1.88 µM. It also gave a TGI (SW-620 colon) of 3.39 µM, a GI50 (UACC-257 melanoma) of 3.39 µM and a TGI (UACC-257 melanoma) of 9.81 µM. For the same compound, the GI50 (HOP-62 NSCLC) was 2.4 µM, the TGI (HOP-62 NSCLC) was 5.77 µM and the GI50 (SK-MEL-28 melanoma) was 3.48 µM. The TGI (SK-MEL-28 melanoma) was 9.82 µM, the GI50 (SK-MEL-5 melanoma) was 2.09 µM and the TGI (SK-MEL-5 melanoma) was 3.79 µM. For the same compound, the GI50 (A498 renal) was 1.91 µM, the TGI (A498 renal) was 3.54 µM and the GI50 (SNB-19 CNS) was 2.33 µM. The TGI (SNB-19 CNS) was 5.78 µM, the GI50 (NCI-H23 lung) was 1.83 µM and the TGI (NCI-H23 lung) was 3.39 µM. It also gave a GI50 ([…]-0 renal) of 1.72 µM, a TGI (786-0 renal) of 3.21 µM and a GI50 (U251 glioblastoma) of 1.74 µM. The TGI (U251 glioblastoma) was 3.26 µM, the GI50 (HCT-116 colon) was 2.59 µM and the TGI (HCT-116 colon) was 5.95 µM. The GI50 (MDA-MB-231 breast) was 3.03 µM, the TGI (MDA-MB-231 breast) was 7.47 µM and the GI50 (UACC-62 melanoma) was 1.82 µM. The TGI (UACC-62 melanoma) was 3.51 µM, the GI50 (SK-MEL-2 melanoma) was 2.02 µM and the TGI (SK-MEL-2 melanoma) was 3.57 µM. For the same compound, the GI50 (ACHN renal) was 1.79 µM, the TGI (ACHN renal) was 3.25 µM and the GI50 (SK-OV-3 ovarian) was 2.19 µM. The TGI (SK-OV-3 ovarian) was 4.54 µM, the GI50 (HL-60(TB) leukemia) was 1.78 µM and the TGI (HL-60(TB) leukemia) was 3.18 µM. For the same compound, the GI50 (BT-549 breast) was 1.85 µM, the TGI (BT-549 breast) was 3.42 µM and the GI50 (SF-539 CNS) was 2.18 µM. For the same compound, the TGI (SF-539 CNS) was 4.3 µM, the GI50 (NCI-H322M lung) was 1.98 µM and the TGI (NCI-H322M lung) was 3.82 µM. The GI50 (M14 melanoma) was 2.37 µM, the TGI (M14 melanoma) was 5.7 µM and the GI50 (DU-145 prostate) was 3.2 µM. It also gave a TGI (DU-145 prostate) of 9.86 µM, a GI50 (RXF 393 renal) of 1.72 µM and a TGI (RXF 393 renal) of 3.15 µM. The GI50 (KM12 colon) was 1.9 µM, the TGI (KM12 colon) was 3.79 µM and the GI50 (HCC-2998 colon) was 1.14 µM. The TGI (HCC-2998 colon) was 2.42 µM, the GI50 (MDA-MB-435 melanoma) was 3.26 µM and the TGI (MDA-MB-435 melanoma) was 10.4 µM. For the same compound, the GI50 (NCI-H460 NSCLC) was 1.74 µM, the TGI (NCI-H460 NSCLC) was 3.24 µM and the GI50 (PC-3 prostate) was 2 µM. For the same compound, the TGI (PC-3 prostate) was 3.93 µM, the GI50 (EKVX NSCLC) was 1.91 µM and the TGI (EKVX NSCLC) was 3.55 µM. For the same compound, the GI50 (CCRF-CEM leukemia) was 1.64 µM, the TGI (CCRF-CEM leukemia) was 3.02 µM and the GI50 (SF-295 CNS) was 1.94 µM. It also gave a TGI (SF-295 CNS) of 3.85 µM, a GI50 (OVCAR-5 ovarian) of 2.57 µM and a TGI (OVCAR-5 ovarian) of 6.52 µM. For the same compound, the GI50 (LOX IMVI melanoma) was 1.93 µM, the TGI (LOX IMVI melanoma) was 3.49 µM and the GI50 (CAKI-1 renal) was 1.72 µM. The TGI (CAKI-1 renal) was 3.32 µM, the GI50 (OVCAR-3 ovarian) was 1.61 µM and the TGI (OVCAR-3 ovarian) was 3.12 µM. For the same compound, the GI50 (RPMI-8226 leukemia) was 1.7 µM and the TGI (RPMI-8226 leukemia) was 3.09 µM.
